Measured values: ChEMBL document CHEMBL1139296, “Pleuromutilin derivatives having a purine ring. Part 2: influence of the central spacer on the antibacterial activity against Gram-positive pathogens” (2009)

Legend:
Format in all cases: functional
Streptococcus pneumoniae [1] = test: Antimicrobial activity against penicillin-resistant Streptococcus pneumoniae KT2524 by NCCLS method
Staphylococcus aureus [2] = test: Antimicrobial activity against methicillin-resistant Staphylococcus aureus KMP9
Staphylococcus aureus [3] = test: Antimicrobial activity against methicillin-susceptible Staphylococcus aureus infected mouse assessed as survival rate administered iv after 1 hr of infection
Staphylococcus aureus [4] = test: Antimicrobial activity against methicillin-susceptible Staphylococcus aureus Smith by NCCLS method
Streptococcus pyogenes = test: Antimicrobial activity against Streptococcus pyogenes […] by NCCLS method
Moraxella catarrhalis = test: Antimicrobial activity against Moraxella catarrhalis K1209 by NCCLS method
Enterococcus faecium = test: Antimicrobial activity against vancomycin-resistant Enterococcus faecium KU1778 by NCCLS method
Haemophilus influenzae = test: Antimicrobial activity against Haemophilus influenzae TH13 by NCCLS method
Streptococcus pneumoniae [5] = test: Antimicrobial activity against penicillin-susceptible Streptococcus pneumoniae ATCC 49619 by NCCLS method

C=C[C@]1(C)C[C@@H](OC(=O)CSC2CN(C(=O)CCn3cnc4c(N5CCNCC5)nc(N)nc43)C2)[C@]2(C)[C@H](C)CC[C@]3(CCC(=O)[C@@H]32)[C@@H](C)[C@@H]1O.Cl
MIC (Streptococcus pneumoniae [1]): 0.25 µg/mL | MIC (Staphylococcus aureus [2]): 2 µg/mL | ED50 (Staphylococcus aureus [3]): 4.07 mg/kg | MIC (Staphylococcus aureus [4]): 0.5 µg/mL | MIC (Streptococcus pyogenes): ≤ 0.004 µg/mL | MIC (Moraxella catarrhalis): 0.125 µg/mL | MIC (Enterococcus faecium): 0.5 µg/mL | MIC (Haemophilus influenzae): 2 µg/mL | MIC (Streptococcus pneumoniae [5]): 0.125 µg/mL

C=C[C@]1(C)C[C@@H](OC(=O)CS[C@@H]2CCN(C(=O)CCn3cnc4c(N5CCNCC5)nc(N)nc43)C2)[C@]2(C)[C@H](C)CC[C@]3(CCC(=O)[C@@H]32)[C@@H](C)[C@@H]1O.Cl
MIC (Streptococcus pneumoniae [1]): 0.125 µg/mL | MIC (Staphylococcus aureus [2]): 2 µg/mL | ED50 (Staphylococcus aureus [3]): 1.28 mg/kg | MIC (Staphylococcus aureus [4]): 0.05 µg/mL | MIC (Streptococcus pyogenes): 0.032 µg/mL | MIC (Moraxella catarrhalis): 0.25 µg/mL | MIC (Enterococcus faecium): 0.5 µg/mL | MIC (Haemophilus influenzae): 2 µg/mL | MIC (Streptococcus pneumoniae [5]): 0.063 µg/mL

C=C[C@]1(C)C[C@@H](OC(=O)CSC2CCCN(C(=O)CCn3cnc4c(N5CCC(N)C5)ncnc43)C2)[C@]2(C)[C@H](C)CC[C@]3(CCC(=O)[C@@H]32)[C@@H](C)[C@@H]1O.Cl (stereo partly specified)
MIC (Streptococcus pneumoniae [1]): 0.016 µg/mL | MIC (Staphylococcus aureus [2]): 0.5 µg/mL | ED50 (Staphylococcus aureus [3]): 2.02 mg/kg | MIC (Staphylococcus aureus [4]): 0.25 µg/mL | MIC (Streptococcus pyogenes): 0.008 µg/mL | MIC (Moraxella catarrhalis): 0.063 µg/mL | MIC (Enterococcus faecium): 0.063 µg/mL | MIC (Haemophilus influenzae): 2 µg/mL | MIC (Streptococcus pneumoniae [5]): 0.016 µg/mL

CC[C@]1(C)C[C@@H](OC(=O)CS(=O)(=O)C2CCN(C(=O)CCn3cnc4c(N5CCC(N)C5)ncnc43)CC2)[C@]2(C)[C@H](C)CC[C@]3(CCC(=O)[C@@H]32)[C@@H](C)[C@@H]1O.Cl (stereo partly specified)
MIC (Streptococcus pneumoniae [1]): 0.125 µg/mL | MIC (Staphylococcus aureus [2]): 2 µg/mL | ED50 (Staphylococcus aureus [3]): 1.79 mg/kg | MIC (Staphylococcus aureus [4]): 0.5 µg/mL | MIC (Streptococcus pyogenes): 0.032 µg/mL | MIC (Moraxella catarrhalis): 0.125 µg/mL | MIC (Enterococcus faecium): 1 µg/mL | MIC (Haemophilus influenzae): 4 µg/mL | MIC (Streptococcus pneumoniae [5]): 0.063 µg/mL

CC[C@]1(C)C[C@@H](OC(=O)COC2CCN(C(=O)CCn3cnc4c(N5CCC(N)C5)ncnc43)CC2)[C@]2(C)[C@H](C)CC[C@]3(CCC(=O)[C@@H]32)[C@@H](C)[C@@H]1O.Cl (stereo partly specified)
MIC (Streptococcus pneumoniae [1]): 0.063 µg/mL | MIC (Staphylococcus aureus [2]): 0.5 µg/mL | ED50 (Staphylococcus aureus [3]): 2.04 mg/kg | MIC (Staphylococcus aureus [4]): 0.25 µg/mL | MIC (Streptococcus pyogenes): 0.032 µg/mL | MIC (Moraxella catarrhalis): 0.125 µg/mL | MIC (Enterococcus faecium): 0.125 µg/mL | MIC (Haemophilus influenzae): 4 µg/mL | MIC (Streptococcus pneumoniae [5]): 0.032 µg/mL

C=C[C@]1(C)C[C@@H](OC(=O)CSC2CCCN(C(=O)CCn3cnc4c(N5CCNCC5)nc(N)nc43)C2)[C@]2(C)[C@H](C)CC[C@]3(CCC(=O)[C@@H]32)[C@@H](C)[C@@H]1O.Cl (stereo partly specified)
MIC (Streptococcus pneumoniae [1]): 0.032 µg/mL | MIC (Staphylococcus aureus [2]): 1 µg/mL | ED50 (Staphylococcus aureus [3]): 3.13 mg/kg | MIC (Staphylococcus aureus [4]): 0.5 µg/mL | MIC (Streptococcus pyogenes): 0.016 µg/mL | MIC (Moraxella catarrhalis): 0.125 µg/mL | MIC (Enterococcus faecium): 0.25 µg/mL | MIC (Haemophilus influenzae): 2 µg/mL | MIC (Streptococcus pneumoniae [5]): 0.032 µg/mL

C=C[C@]1(C)C[C@@H](OC(=O)CSCC2CCN(C(=O)CCn3cnc4c(N5CCNCC5)nc(N)nc43)CC2)[C@]2(C)[C@H](C)CC[C@]3(CCC(=O)[C@@H]32)[C@@H](C)[C@@H]1O.Cl
MIC (Streptococcus pneumoniae [1]): 0.032 µg/mL | MIC (Staphylococcus aureus [2]): 0.5 µg/mL | ED50 (Staphylococcus aureus [3]): 2.77 mg/kg | MIC (Staphylococcus aureus [4]): 0.25 µg/mL | MIC (Streptococcus pyogenes): 0.016 µg/mL | MIC (Moraxella catarrhalis): 0.125 µg/mL | MIC (Enterococcus faecium): 0.063 µg/mL | MIC (Haemophilus influenzae): 4 µg/mL | MIC (Streptococcus pneumoniae [5]): 0.032 µg/mL

CC[C@]1(C)C[C@@H](OC(=O)CSC2CCN(C(=O)CCn3cnc4c(N5CCNCC5)nc(N)nc43)CC2)[C@]2(C)[C@H](C)CC[C@]3(CCC(=O)[C@@H]32)[C@@H](C)[C@@H]1O.Cl
MIC (Streptococcus pneumoniae [1]): 0.063 µg/mL | MIC (Staphylococcus aureus [2]): 0.25 µg/mL | ED50 (Staphylococcus aureus [3]): 1.66 mg/kg | MIC (Staphylococcus aureus [4]): 0.25 µg/mL | MIC (Streptococcus pyogenes): 0.032 µg/mL | MIC (Moraxella catarrhalis): 0.125 µg/mL | MIC (Enterococcus faecium): 0.125 µg/mL | MIC (Haemophilus influenzae): 1 µg/mL | MIC (Streptococcus pneumoniae [5]): 0.063 µg/mL

C=C[C@]1(C)C[C@@H](OC(=O)CN(C)CCN(C)C(=O)CCn2cnc3c(N4CCC(N)C4)ncnc32)[C@]2(C)[C@H](C)CC[C@]3(CCC(=O)[C@@H]32)[C@@H](C)[C@@H]1O.Cl.Cl (stereo partly specified)
MIC (Streptococcus pneumoniae [1]): 0.125 µg/mL | MIC (Staphylococcus aureus [2]): 4 µg/mL | ED50 (Staphylococcus aureus [3]): > 3.13 mg/kg | MIC (Staphylococcus aureus [4]): 1 µg/mL | MIC (Streptococcus pyogenes): 0.063 µg/mL | MIC (Moraxella catarrhalis): 0.25 µg/mL | MIC (Enterococcus faecium): 1 µg/mL | MIC (Haemophilus influenzae): 8 µg/mL | MIC (Streptococcus pneumoniae [5]): 0.063 µg/mL
